Data reported in patent US6087509A, “1-Imidazolidinyl-phenyls” (Hoechst Marion Roussel, priority 1995, dated 2000).

How the values were obtained:
androgen receptor = molecular target: T1, androgen receptor (Rattus norvegicus, UniProt P15207); assay: Affinity for the androgen receptor (relative bond affinity, tritiated testosterone displacement in rat prostate cytosol); format: binding
T1 construct: from tissue; host or cells: prostate cytosol of castrated male Sprague Dawley rats
T1 sequence (P15207 1-902): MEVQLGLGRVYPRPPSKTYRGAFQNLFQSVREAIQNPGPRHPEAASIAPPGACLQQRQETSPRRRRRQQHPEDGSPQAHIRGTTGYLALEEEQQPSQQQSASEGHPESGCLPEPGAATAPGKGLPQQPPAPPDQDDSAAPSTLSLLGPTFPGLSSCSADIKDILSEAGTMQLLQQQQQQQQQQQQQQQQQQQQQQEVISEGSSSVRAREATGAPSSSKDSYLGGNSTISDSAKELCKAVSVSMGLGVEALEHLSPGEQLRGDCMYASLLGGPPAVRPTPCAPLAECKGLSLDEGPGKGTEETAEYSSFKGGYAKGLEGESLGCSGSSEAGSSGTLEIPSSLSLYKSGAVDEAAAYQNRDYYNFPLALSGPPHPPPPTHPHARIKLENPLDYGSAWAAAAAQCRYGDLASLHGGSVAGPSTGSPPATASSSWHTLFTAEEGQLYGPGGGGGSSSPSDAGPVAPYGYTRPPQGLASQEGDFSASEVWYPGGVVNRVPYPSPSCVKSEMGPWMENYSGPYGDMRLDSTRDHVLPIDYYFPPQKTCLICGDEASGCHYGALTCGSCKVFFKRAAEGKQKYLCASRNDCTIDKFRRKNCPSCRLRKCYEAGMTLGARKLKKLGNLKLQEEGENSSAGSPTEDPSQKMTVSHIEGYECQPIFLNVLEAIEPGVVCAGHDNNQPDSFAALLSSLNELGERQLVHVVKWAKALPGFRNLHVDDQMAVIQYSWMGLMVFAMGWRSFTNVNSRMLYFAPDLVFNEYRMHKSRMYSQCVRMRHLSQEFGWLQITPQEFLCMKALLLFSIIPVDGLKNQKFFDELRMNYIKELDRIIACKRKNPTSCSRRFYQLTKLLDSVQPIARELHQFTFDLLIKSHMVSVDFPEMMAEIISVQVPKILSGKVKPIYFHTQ
Method: The straight line of the equation I50 =(B/Tmax+B/Tmin)/2 is determined.

[1] = tested on: costovertebral gland of the hamster; assay: Reducing effect on the costo-vertebral gland of the hamster (topical antiandrogen activity); format: in vivo; settings: topical on right-hand C.V.G., 3 weeks (14 administrations), male hamsters, reduction in surface area
Method: 2) Determination of the Reducing Effect on the Costo-vertebral Gland of the Hamster
The local activity (topical) of an antiandrogen is determined by the reduction which it brings about in the surface area of the costovertebral gland of the hamster (hereafter C.V.G.), an androgen-dependent organ situated on the flanks of the animal.
The animals are male hamsters weighing about 140 g, 14 weeks old and originating from the Charles River breed (USA), they are subjected to a long photoperiod (16 hours of light, 8 hours of darkness). The animals are treated every day, except for the weekend, for 3 weeks (14 administrations). The product to be tested is applied, by topical route, on the right-hand C.V.G., the left-hand one serving as the control. The surface of the gland has been shaved beforehand. The animals are sacrificed by bleeding the carotid artery 24 hours after the last treatment. The C.V.G.'s are removed, measured and weighed. The local activity of a product is determined by the % of reduction in the surface area of the C.V.G. which it induces in comparison with the 1st day of the experiment and compared to the animals treated with solvent only.

[2] = tested on: prostate in an intact male rat; assay: Reducing effect of the weight of the prostate in an intact male rat (systemic antiandrogen activity); format: in vivo; settings: day 0 to 4 and day 7 to 10, intact male Sprague Dawley rats, compared to solvent only
Method: 3) Determination of the Reducing Effect of the Weight of the Prostate in an Intact Male Rat
The systemic activity of an antiandrogen is determined by the reduction in the weight of the prostate which it brings about in an intact animal.
The animals used are male rats of the Sprague Dawley strain weighing about 200 g, 7 weeks old, originating from the Iffa Credo breed (France). The experiment is carried out over two weeks, except for the weekend.
The product can be administered by oral, sub-cutaneous or percutaneous route.
The solvents used are then: by oral route: 0.5% aqueous solution of methylcellulose under a volume of 5 ml/kg, by sub-cutaneous route: wheatgerm oil in 10% ethanol under a volume of 0.2 ml/kg, and by percutaneous route: ethanol under a volume of 50 ul on previously-shaved skin.
The treatment is carried out from day 0 to day 4 then (after the weekend) from day 7 to day 10. The animals are sacrificed the day after the last treatment by bleeding the carotid artery, the prostates are removed and fixed in demineralized water containing 10% formol for 72 hours. They are then dissected and weighed.

## N#Cc1ccc(N2C(=O)N(CCF)C(CF)(CF)C2=O)cc1C(F)(F)F [Example 1, 4-(4,4-bis(fluoromethyl)-2,5-dioxo-3-(2-fluoroethyl)-1-imidazolidinyl)-2-(trifluoromethyl)-benzonitrile]
Androgen receptor
  RBA: Incubation 24 hours: 42
[1]
  % CVG reduction with 3 μg/jour: -32%
[2]
  % reduction in the prostate weight with 3 mg/kg P.O.: -27%

## CCN1C(=O)N(c2ccc(C#N)c(C(F)(F)F)c2)C(=O)C1(CF)CF [Example 3, 4-(2,5-dioxo-4,4-bis(fluoromethyl)-3-ethyl-1-imidazolidinyl)-2-(trifluoromethyl)-benzonitrile]
Androgen receptor
  RBA: Incubation 24 hours: 43
[1]
  % CVG reduction with 3 μg/jour: -33%
[2]
  % reduction in the prostate weight with 3 mg/kg P.O.: -20%

## CC1(C)C(=O)N(c2ccc(C#N)c(C(F)(F)F)c2)C(=O)N1CC#CCO [Example 8, 4-(3-(4-hydroxy-2-butyn-1-yl)-4,4-dimethyl-2,5-dione-1-imidazolidinyl)-2-(trifluoromethyl)-benzonitrile]
[2]
  % reduction in the prostate weight with 3 mg/kg P.O.: -35%

## N#Cc1ccc(N2C(=O)N(CCCCO)C3(CCCCC3)C2=O)cc1C(F)(F)F [Example 9, 4-[2,4-dioxo-1-(4-hydroxybutyl)-1,3-diazaspiro-[4.5]decan-3-yl]-2-(trifluoromethyl)-benzonitrile]
[1]
  % CVG reduction with 3 μg/jour: -25%
